Data reported in patent US7576071B2, “Antithrombotic compound” (sanofi-aventis, priority 2004, dated 2009).

Test system: washed human platelets, TRAP-induced aggregation
Test: In vitro test for inhibition of human platelet aggregation induced by TRAP
Type: cell-based
Settings: 5 μM TRAP; washed human platelets; mean of n experiments; entries marked b measured with a Chronolog aggregometer, others with micro plate reader; read-out: Inhibition of TRAP (5 μM)-induced human platelet aggregation (IC50), mean
Source text: I.b. In vitro Test for Inhibition of Human Platelet Aggregation Induced by TRAP
Introduction: Addition of trombin receptor agonist peptide (TRAP) to washed human platelets (WPL) in vitro induces platelet aggregation. This aggregation can be determined by measuring the optical density of the WPL. The in vitro test described here is used to analyze the activity of a test compound to inhibit TRAP-induced aggregation of human platelets. A micro plate reader is used to measure the activity of several compounds simultaneously.
An alternative vehicle is 0.9% NaCl in MQ H2O. The compound solution (either in MQ H2O or 0.9% NaCl in MQ H2O) is further diluted in 0.9% NaCl in MQ H2O.
Free-flowing blood (at least 100 mL) is taken from a healthy volunteer and collected in 0.1 volume 3.8% sodium citrate. 2H2O in MQ H2O (w/v). The final concentration is 0.38% sodium citrate. The citrated blood is centrifuged at 1,600 N/kg (160 g) in Hettich Rotanta/AP centrifuge (750 rpm) at RT. After 15 min, centrifugation is discontinued with the brake turned off and the supernatant (=PRP) is collected. • 2. Washed platelets (WPL):
After adding freshly made 1 μL PGI2 solution per ml PRP, the suspension is centrifuged at 13,500 N/kg (1,350 g) for 10 min in a Hettich Rotanta/AP centrifuge (i.e., 2,800 rpm) at RT. After gentle resuspension of the pellet in the same volume of fresh Watson buffer containing 5 ng/mL PGI2, the suspension is centrifuged at 1,350 g (2,800 rpm) for 10 min at RT again. The final platelet pellet is resuspended in Watson buffer to give approx. 400,000±50,000 platelets/[…]. • 3. Watson buffer:
134 mM NaCl, 2.9 mM KCl, 12 mM NaHCO3, 0.34 mM Na2HPO4.2H2O, 1 mM MgCl2.6H2O, 5 mM Glucose and 5 mM HEPES in MQ H2O. The pH is adjusted to 7.4 with 1 M NaOH. • 4. Prostaglandin I2 (Sigma, P6188 powder):
The PGI2 stock solution of 1 mg/mL in 1 M KOH is stored in aliquots of 100 μL at −20° C. Immediately before use, a solution of 5 μg/mL in ice-cold 0.9% NaCl in MQ H2O is prepared. • 5. Human Fibrinogen (Kordia/ERL, art nr: FIB 2 powder):
0.5 g fibrinogen powder is dissolved in 50 mL MQ H2O under vacuum. This stock solution is stored in aliquots of 1 mL at −20° C. Before use, a solution of 0.5 mg/mL in saline is prepared.
Before use, a solution of 50 μM TRAP in 0.9% NaCl in MQ H2O is prepared. For each test, a fresh solution is made.
• 1. Sysmex cell counter model KX-21 • 2. Labsystems iEMS reader MF with a 405 nm filter, an orbital shaker set at 1,000 rpm and a constant temperature of 37° C. Absorptions are measured with the Labsystems iEMS program. • 3. Blood collection system 600 mL with needle, art nr P4203 (NPBI) • 4. 96 wells micro plates (Greiner Labortechnik) flat-bottom
Procedure: The WPL concentration is counted in a Sysmex blood cell counter and the suspension is diluted with Watson buffer to obtain a concentration of 400,000±50,000 plt/μL. Before use, WPL is allowed to stabilize at room temperature for at least 20 min but not longer than 3-4 hours.
TRAP-induced aggregation: 150 μL WPL is pipetted into a well of a micro plate. 15 μL test compound or vehicle and 15 μL fibrinogen solution is added and the micro plate is placed in the micro plate reader at 37° C. Then, the optical density (OD) is measured at 405 nm and after shaking for 2 min in the reader, the OD405 is measured again to verify the stability of the platelets (absence of spontaneous platelet aggregation). 20 μL of 50 μM TRAP is added and the OD405 is kinetically measured every min for 14 min at 405 nm. Between two measurements, the plate is shaking for 40 seconds at 1,000 rpm (FIG. 1). For determination of the IC50 of a test compound, each test compound is investigated in at least 2 experiments using WPL from different volunteers.
Evaluation of response: The mean OD of each concentration (including vehicle) is calculated at t=0 min and t=10 min. The percentage inhibition at each concentration is calculated using the formula: […]

IC50: 80 nM
Substance: Methyl O-2,3-di-O-methyl-4-O-<<12-N-<N-(3-keto-benzenesulfonyl)-4-O-{4-(4-piperidinyl)-butyl}-L-tyrosine>-12-aza-3,6,9-trioxa-dodecyl>>-6-O-sulfo-alpha-D-glucopyranosyl-(1->4)-O-2,3-di-O-methyl-beta-D-glucopyranuronosyl-(1->4)-O-2,3,6-tri-O-sulfo-alpha-D-glucopyranosyl-(1->4)-O-2,3-di-O-methyl-alpha-L-idopyranuronosyl-(1>4)-3-O-methyl-2,6-di-O-sulfo-alpha-D-glucopyranoside octakis sodium salt [XIV]
